How the values were obtained:
Type in all cases: binding
[1] = target: T1, ADORA2B (Homo sapiens, UniProt P29275); assay: NanoBRET screen HiBiT-ADORA2B in HEK293; conditions: ADORA2B
T1 construct: purchased Promega (in-house HiBiT-GPCR construct library, NanoBRET)
T1 sequence (P29275 1-332): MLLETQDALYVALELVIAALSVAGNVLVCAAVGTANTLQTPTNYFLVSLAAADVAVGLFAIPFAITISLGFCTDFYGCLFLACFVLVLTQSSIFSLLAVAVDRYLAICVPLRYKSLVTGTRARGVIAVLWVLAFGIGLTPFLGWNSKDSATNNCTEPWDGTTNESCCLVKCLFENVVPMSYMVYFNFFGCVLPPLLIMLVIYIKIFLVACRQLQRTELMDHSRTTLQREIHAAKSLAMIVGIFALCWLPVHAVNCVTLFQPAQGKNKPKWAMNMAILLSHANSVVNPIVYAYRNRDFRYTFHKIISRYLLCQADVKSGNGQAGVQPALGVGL
Procedure: (§1) Each tracer candidate was screened across the entire library of HiBiT-GPCR constructs using NanoBRET as the detection modality. As depicted in Figure 4A, the specificity of interactions was evaluated through decrease in BRET due to competitive displacement of a bound tracer by excess parental compound. Each tracer was analyzed for binding to each HiBiT-GPCR fusion in the absence and in the presence of competing parental compound. Briefly, HEK293 cells were transfected with HiBiT-GPCR constructs diluted into promoterless DNA to reduce expression and maximize translocation to the cell surface. Each tracer candidate was then screened at concentrations of 1 μM and 0.1 μM across cells expressing these fusions. Cells were treated for 1.5 h with tracer either alone or in the presence of 20 μM competing parental compound (i.e., control). BRET was measured upon addition of purified LgBiT and subsequent complementation with HiBiT genetically fused to a GPCR. The specificity of interactions was assessed through a decrease in BRET signal due to competitive displacement of the bound tracer. To further gauge the robustness of these interactions, the fold response over the control (i.e., BRETtracer/BRETcontrol) was calculated. We chose a 1.5-fold response, which translates to ≥7-fold signal over noise as the minimal threshold required to score an interaction as positive. […]. Below we highlight the screening results obtained for our exemplary fluorescent tracers based on Clozapine, Amitriptyline and AZD1283.
(§2) HiBiT-GPCR DNA constructs were diluted in 10 mM Tris pH 8 to a final concentration of 0.01 μg/μL, arrayed in 96-well plates and stored at −20 °C. For transfection, HEK293 cells were suspended in Opti-MEM (without phenol red) supplemented with 2% fetal bovine serum (Seradigm) and 100 units/mL penicillin–streptomycin (Gibco) at a final concentration of 220,000 cells/mL and dispensed into white 96-well plates at 90 μL/well. Subsequent transfections and screens were carried using an Agilent Bravo Automated Liquid Handling Platform. First, the 96-well HiBiT DNA arrays were diluted 25-fold in Opti-MEM (without serum or phenol red) to a final concentration of 0.0004 μg/μL and 20 μL of the diluted DNAs were transferred into new 96-well plates. Next, promoterless carrier DNA (1 μg/μL) was diluted 25-fold (0.04 μg/μL) and then dispensed into the diluted arrays at 20 μL/well. Following brief mixing, Viafect transfection reagent (Promega) diluted 16-fold into Opti-MEM was dispensed into the plates at 40 μL/well. After mixing by pipetting, plates were incubated for 10 min on the pipetting station deck. The DNA-transfection reagent complexes were then added to plates containing cells. To facilitate the screen, 10 μL of DNA-transfection reagent complexes were added in duplicates to the top 4 and bottom 4 rows, resulting in two identical 48-well arrays per plate. Plates with transfected cells were incubated for 18–20 h at 37 °C/5% CO2. A screen of each tracer across the entire library using two different concentrations requires duplicate plates of transfected cells. Depending on the number of tracers being screened, transfections can be scaled up using the same ratios. The next day, for each tracer, four 20× screening solutions in tracer dilution buffer (Promega) were prepared: two duplicates at final concentration of 20 μM and two duplicates at a final concentration of 2 μM. A competing unmodified compound was added to one of each duplicate at a final concentration of 400 μM. The four resulting solutions were diluted 4-fold in Opti-MEM without serum or phenol red to generate 5× solutions (5 µM and 0.5 µM tracer +/− 100 μM competing compound). To screen the library, a BioTek MultiFlo FX liquid dispenser was used to dispense 22.5 µL of tracer solution to the top 4 rows and 22.5 µL tracer + competing compound solution to the 4 bottom rows. Plates were briefly mixed on an orbital shaker and incubated for 1.5 h at room temperature. […]

[2] = target: T2, AGTR1 (Homo sapiens, UniProt P30556); assay: NanoBRET screen HiBiT-AGTR1 in HEK293; conditions: AGTR1
T2 construct: purchased Promega (in-house HiBiT-GPCR construct library, NanoBRET)
T2 sequence (P30556 1-359): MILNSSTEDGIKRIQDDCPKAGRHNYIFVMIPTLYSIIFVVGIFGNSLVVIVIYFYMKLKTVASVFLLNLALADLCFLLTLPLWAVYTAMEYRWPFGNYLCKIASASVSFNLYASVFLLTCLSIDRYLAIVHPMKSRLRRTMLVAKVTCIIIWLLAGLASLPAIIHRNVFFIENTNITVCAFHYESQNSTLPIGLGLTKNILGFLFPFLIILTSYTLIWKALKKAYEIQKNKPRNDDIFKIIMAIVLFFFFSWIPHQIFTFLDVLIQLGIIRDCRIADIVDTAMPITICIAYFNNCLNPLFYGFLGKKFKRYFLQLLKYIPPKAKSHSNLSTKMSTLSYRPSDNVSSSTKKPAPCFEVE
Procedure: as §1, §2

[3] = target: T3, CCR4 (Homo sapiens, UniProt P51679); assay: NanoBRET screen HiBiT-CCR4 in HEK293; conditions: CCR4
T3 construct: purchased Promega (in-house HiBiT-GPCR construct library, NanoBRET)
T3 sequence (P51679 1-360): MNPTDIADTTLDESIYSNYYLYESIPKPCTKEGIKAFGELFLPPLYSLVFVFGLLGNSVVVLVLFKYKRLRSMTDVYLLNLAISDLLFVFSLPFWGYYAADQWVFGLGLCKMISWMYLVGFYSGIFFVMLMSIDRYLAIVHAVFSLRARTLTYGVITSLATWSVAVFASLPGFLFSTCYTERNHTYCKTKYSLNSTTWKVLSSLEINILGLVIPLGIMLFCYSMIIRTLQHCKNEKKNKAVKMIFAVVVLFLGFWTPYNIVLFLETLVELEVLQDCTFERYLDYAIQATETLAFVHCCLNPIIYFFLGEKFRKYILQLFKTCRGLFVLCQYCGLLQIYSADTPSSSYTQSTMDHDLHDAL
Procedure: as §1, §2

[4] = target: T4, FZD8 (Homo sapiens, UniProt Q9H461); assay: NanoBRET screen HiBiT-FZD8 in HEK293; conditions: FZD8
T4 construct: purchased Promega (in-house HiBiT-GPCR construct library, NanoBRET)
Procedure: as §1, §2

[5] = target: T5, OPRL1 (Homo sapiens, UniProt P41146); assay: NanoBRET screen HiBiT-OPRL1 in HEK293; conditions: OPRL1
T5 construct: purchased Promega (in-house HiBiT-GPCR construct library, NanoBRET)
Procedure: as §1, §2

[6] = target: T6, MCHR1 (Homo sapiens, UniProt Q99705); assay: NanoBRET screen HiBiT-MCHR1 in HEK293; conditions: MCHR1
T6 construct: purchased Promega (in-house HiBiT-GPCR construct library, NanoBRET)
Procedure: as §1, §2

T4 sequence (Q9H461 28-694): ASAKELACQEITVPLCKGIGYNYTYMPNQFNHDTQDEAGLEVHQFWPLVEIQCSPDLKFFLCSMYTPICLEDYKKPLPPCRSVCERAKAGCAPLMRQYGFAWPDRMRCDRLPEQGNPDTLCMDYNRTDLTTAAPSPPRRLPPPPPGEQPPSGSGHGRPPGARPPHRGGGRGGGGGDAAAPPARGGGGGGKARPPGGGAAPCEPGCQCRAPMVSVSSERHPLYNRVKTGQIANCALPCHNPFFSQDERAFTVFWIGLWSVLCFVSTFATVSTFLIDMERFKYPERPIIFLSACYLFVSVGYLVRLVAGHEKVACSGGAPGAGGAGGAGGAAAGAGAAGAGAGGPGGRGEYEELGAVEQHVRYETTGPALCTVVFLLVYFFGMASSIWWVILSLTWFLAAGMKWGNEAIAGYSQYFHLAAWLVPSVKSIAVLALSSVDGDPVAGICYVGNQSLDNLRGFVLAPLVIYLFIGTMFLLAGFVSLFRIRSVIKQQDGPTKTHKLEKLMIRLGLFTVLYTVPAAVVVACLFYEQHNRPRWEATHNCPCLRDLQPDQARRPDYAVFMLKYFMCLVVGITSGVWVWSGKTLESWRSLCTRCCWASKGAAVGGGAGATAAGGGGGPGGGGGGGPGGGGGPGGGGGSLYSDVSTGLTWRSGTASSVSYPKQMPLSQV
T6 sequence (Q99705 whole entry): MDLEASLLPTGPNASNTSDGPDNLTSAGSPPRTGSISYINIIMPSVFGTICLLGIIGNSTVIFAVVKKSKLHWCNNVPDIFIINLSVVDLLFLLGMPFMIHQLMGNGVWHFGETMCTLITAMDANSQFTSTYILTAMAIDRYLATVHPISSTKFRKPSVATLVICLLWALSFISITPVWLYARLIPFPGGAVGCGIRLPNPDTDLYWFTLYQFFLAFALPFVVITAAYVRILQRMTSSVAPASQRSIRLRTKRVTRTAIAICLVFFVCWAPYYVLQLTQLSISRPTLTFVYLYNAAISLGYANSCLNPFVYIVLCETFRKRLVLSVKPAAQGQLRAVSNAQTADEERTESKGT
T5 sequence (P41146 whole entry): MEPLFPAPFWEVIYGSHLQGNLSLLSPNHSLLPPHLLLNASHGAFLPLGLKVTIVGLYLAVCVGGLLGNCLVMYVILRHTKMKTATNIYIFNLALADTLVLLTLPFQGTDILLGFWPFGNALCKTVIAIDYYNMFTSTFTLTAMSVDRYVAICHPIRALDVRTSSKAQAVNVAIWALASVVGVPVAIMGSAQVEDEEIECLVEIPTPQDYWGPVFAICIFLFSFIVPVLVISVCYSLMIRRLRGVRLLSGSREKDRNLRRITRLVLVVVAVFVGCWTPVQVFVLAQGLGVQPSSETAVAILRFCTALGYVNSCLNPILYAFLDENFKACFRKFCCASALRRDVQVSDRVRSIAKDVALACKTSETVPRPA

Row | Compound | NanoBRET Fold Response ([1]; tracer 0.1μM) | NanoBRET Fold Response ([1]; tracer 1μM) | NanoBRET Fold Response ([2]; tracer 0.1μM) | NanoBRET Fold Response ([2]; tracer 1μM) | NanoBRET Fold Response ([3]; tracer 0.1μM) | NanoBRET Fold Response ([3]; tracer 1μM) | NanoBRET Fold Response ([4]; tracer 0.1μM) | NanoBRET Fold Response ([4]; tracer 1μM) | NanoBRET Fold Response ([5]; tracer 0.1μM) | NanoBRET Fold Response ([5]; tracer 1μM) | NanoBRET Fold Response ([6]; tracer 0.1μM) | NanoBRET Fold Response ([6]; tracer 1μM) | other results
1 | O=C(CCc1ccc2n1[B-](F)(F)[N+]1=C(c3ccc[nH]3)C=CC1=C2)NCCOCCOCCNC(=O)OCCOCCN1CCN(C2=Nc3ccccc3Sc3ccccc32)CC1 [Quetiapine-a-2-NB590] | 0.80 | 1.02 | 1.00 | 0.92 | 1.02 | 0.94 | 1.02 | 1.08 | 0.90 | 1.00 | 1.04 | 0.84 | –
2 | O=C(CCOCCOCCOCCOCCNC(=O)CCc1ccc2n1[B-](F)(F)[N+]1=C(c3ccc[nH]3)C=CC1=C2)NCCCN1CCN(C2=Nc3cc(Cl)ccc3Nc3ccccc32)CC1 [Clozapine-a-2-NB590] | – | – | – | – | – | – | – | – | – | – | – | – | NanoBRET Fold Response ([1]; 0.1μM tracer): 1.01; NanoBRET Fold Response ([1]; 1μM tracer): 0.67; NanoBRET Fold Response ([2]; 0.1μM tracer): 0.96; NanoBRET Fold Response ([2]; 1μM tracer): 1.05; NanoBRET Fold Response ([3]; 0.1μM tracer): 1.05; NanoBRET Fold Response ([3]; 1μM tracer): 0.85; NanoBRET Fold Response ([4]; 0.1μM tracer): 1.02; NanoBRET Fold Response ([4]; 1μM tracer): 1.00; NanoBRET Fold Response ([5]; 0.1μM tracer): 0.99; NanoBRET Fold Response ([5]; 1μM tracer): 1.05; NanoBRET Fold Response ([6]; 0.1μM tracer): 0.87; NanoBRET Fold Response ([6]; 1μM tracer): 1.26
3 | N#CN=C(NCCCOc1cccc(CN2CCCCC2)c1)NCCNC(=O)CCOCCOCCOCCOCCNC(=O)CCc1ccc2n1[B-](F)(F)[N+]1=C(c3ccc[nH]3)C=CC1=C2 [Aminopotentidine-2-NB590] | 1.37 | 1.06 | 1.00 | 0.96 | 1.09 | 0.96 | 0.98 | 1.01 | 1.05 | 1.01 | 0.99 | 0.95 | –
4 | O=C(CCc1ccc2n1[B-](F)(F)[N+]1=C(c3ccc[nH]3)C=CC1=C2)NCc1ccc(C(=O)NCCOCCOCCNCC(O)COc2cccc3ccccc23)cc1 (stereo not drawn) [Propranolol-3-NB590] | – | – | – | – | – | – | – | – | – | – | – | – | NanoBRET Fold Response ([1]; 0.1μM): 1.10; NanoBRET Fold Response ([1]; 1μM): 0.95; NanoBRET Fold Response ([2]; 0.1μM): 1.04; NanoBRET Fold Response ([2]; 1μM): 1.07; NanoBRET Fold Response ([3]; 0.1μM): 1.11; NanoBRET Fold Response ([3]; 1μM): 1.03; NanoBRET Fold Response ([4]; 0.1μM): 1.01; NanoBRET Fold Response ([4]; 1μM): 1.02; NanoBRET Fold Response ([5]; 0.1μM): 0.96; NanoBRET Fold Response ([5]; 1μM): 1.01; NanoBRET Fold Response ([6]; 0.1μM): 0.96; NanoBRET Fold Response ([6]; 1μM): 1.03
